Drawing on patent publication US20070066632A1, “Fused bicyclic inhibitors of TGFbeta” (Scios, Inc., priority 2005, published 2007), this text covers IC50 and EC50 for 17 molecules.

As a reminder, the IC50 is the concentration that inhibits the measured activity by half. The EC50 is the concentration needed to bring the measured effect to its halfway point. A low value points to higher potency in that assay.

Structures are written as SMILES.

The target in the first experiment is T1, TGFβ R1 (Homo sapiens, UniProt P36897).
T1 sequence (P36897 34-503): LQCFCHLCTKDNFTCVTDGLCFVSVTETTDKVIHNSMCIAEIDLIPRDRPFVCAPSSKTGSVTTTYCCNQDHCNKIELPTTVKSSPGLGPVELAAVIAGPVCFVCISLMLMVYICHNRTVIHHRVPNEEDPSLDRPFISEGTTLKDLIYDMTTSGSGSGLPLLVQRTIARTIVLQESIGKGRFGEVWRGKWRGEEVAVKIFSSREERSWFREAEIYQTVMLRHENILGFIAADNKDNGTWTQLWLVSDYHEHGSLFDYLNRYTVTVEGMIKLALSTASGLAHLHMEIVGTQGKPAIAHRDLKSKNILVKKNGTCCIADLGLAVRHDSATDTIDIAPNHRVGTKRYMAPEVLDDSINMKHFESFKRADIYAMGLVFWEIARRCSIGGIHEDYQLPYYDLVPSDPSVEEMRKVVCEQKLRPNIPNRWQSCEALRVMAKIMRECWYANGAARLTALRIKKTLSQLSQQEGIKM
Kind of experiment: TGFβ R1 autophosphorylation protocol. Type of experiment: biochemical. Particulars: 10 uM ATP, 170 nM TGFβ R1, 20 minutes at room temperature; read-out: IC50 for Kinase Inhibition. On the procedure: The compounds of the invention were tested for their ability to inhibit TGFβ by a TGFβ R^1 autophosphorylation protocol. This was conducted as follows: Compound dilutions and reagents were prepared fresh daily. Compounds were diluted from DMSO stock solutions to 2 times the desired assay concentration, keeping final DMSO concentration in the assay less than or equal to 1%. TGFβ R1 was diluted to 4 times the desired assay concentration in buffer+DTT. ATP was diluted into 4× reaction buffer, and gamma-^33P-ATP was added at 60 uCi/mL.
The assay was performed by adding 10 ul of the enzyme to 20 ul of the compound solution. The reaction was initiated by the addition of 10 ul of ATP mix. Final assay conditions included 10 uM ATP, 170 nM TGFβ R1, and […] in 20 mM MOPS, pH7. The reactions were incubated at room temperature for 20 minutes. The reactions were stopped by transferring 23 ul of reaction mixture onto a phosphocellulose 96-well filter plate, which had been pre-wetted with 15 ul of 0.25M H3PO4 per well. After 5 minutes, the wells were washed 4× with 75 mM H3PO4 and once with 95% ethanol. The plate was dried, scintillation cocktail was added to each well, and the wells were counted in a Packard TopCount microplate scintillation counter.
On to `NC(=O)c1cnccc1Nc1nc(-c2cc(Cl)ccc2F)nc2ncccc12` [Compound 1], for which the IC50 amounted to 20 nM.

As for `CNC(=O)c1cnccc1Nc1nc(-c2cc(Cl)ccc2F)nc2ncccc12` [Compound 2], the concentration for half-maximal inhibition (IC50) amounted to 70 nM.

`CNC(=O)c1cnccc1Nc1nc(-c2cc(Cl)ccc2NC)nc2ncccc12` [Compound 3]: the IC50 turned out to be 1600 nM.

In the case of `CNC(=O)c1cnccc1Nc1nc(-c2cc(Cl)ccc2F)nc2nc(N)ccc12` [Compound 4], the concentration for half-maximal inhibition (IC50) worked out at 30 nM.

As for `CNC(=O)c1cnccc1Nc1nc(-c2cc(Cl)ccc2F)nc2nc(NCCN(C)C)ccc12` [Compound 5], the IC50 was 6040 nM.

For the molecule `CC(O)CNC(=O)c1cnccc1Nc1nc(-c2cc(Cl)ccc2F)nc2nc(NCCN(C)C)ccc12` (stereo not shown) [Compound 6], the IC50 turned out to be 12200 nM.

`CNC(=O)c1cnccc1Nc1nc(-c2cc(Cl)ccc2F)nc2nc(NCCOC)ccc12` [Compound 7]: the IC50 amounted to 980 nM.

With `COc1ccc(CNc2ccc3c(Nc4ccncc4C(=O)NC4CC4)nc(-c4cc(Cl)ccc4F)nc3n2)cc1` [Compound 8], the 50% inhibitory concentration (IC50) is 1400 nM.

For the molecule `Nc1ccc2c(Nc3ccncc3C(=O)NC3CC3)nc(-c3cc(Cl)ccc3F)nc2n1` [Compound 9], the IC50 amounted to 2700 nM.

As for `C[C@H](O)CNC(=O)c1cnccc1Nc1nc(-c2cc(Cl)ccc2F)nc2nc(N)ccc12` [Compound 10], the IC50 stood at 5010 nM.

On to `COC(=O)c1cnccc1Nc1nc(-c2cc(Cl)ccc2F)nc2ncccc12` [Compound 11], for which the IC50 is 1370 nM.

As to `O=C(O)c1cnccc1Nc1nc(-c2cc(Cl)ccc2F)nc2ncccc12` [Compound 12], the IC50 turned out to be 230 nM.

As to `CCOC(=O)c1cnccc1Nc1nc(-c2cc(Cl)ccc2F)nc2ncccc12` [Compound 13], the IC50 is 530 nM.

Consider `CN(Cc1ccccc1)c1ccc2c(Nc3ccncc3C(=O)O)nc(-c3cc(Cl)ccc3F)nc2n1` [Compound 14], for which the IC50 is 225 nM.

As for `COc1ccc(CN(Cc2ccc(OC)cc2)c2ccc3c(Nc4ccncc4C(=O)O)nc(-c4cc(Cl)ccc4F)nc3n2)cc1` [Compound 15], the half-inhibitory concentration (IC50) was found to be 569 nM.

For `COC(=O)c1cnccc1Nc1nc(-c2cc(Cl)ccc2F)nc2nc(N(Cc3ccc(OC)cc3)Cc3ccc(OC)cc3)ccc12` [Compound 16], the half-inhibitory concentration (IC50) was found to be 745 nM.

For `COc1ccc(CNc2ccc3c(Nc4ccncc4C(=O)NCCCN4CCOCC4)nc(-c4cc(Cl)ccc4F)nc3n2)cc1` [Compound 18], the IC50 came to 990 nM.

The next experiment deals with HCV replicons (HCV type 1b NS3-NS5B) in Huh-Luc cells. As to the kind of experiment: HCV replicon assay (Huh-7 luc/neo, luciferase reporter). The note with it: Hepatitis C virus, Huh-7, 72 h, incubation of three days, luciferase activity. Type of experiment: cell-based. The source says: The pyrido[2,3-d]pyrimidine compounds of the present invention were examined for activity in the inhibition of HCV RNA replication in a cellular assay. […] The cellular assay was based on a bicistronic expression construct, as described by Lohmann et al. (1999) Science vol. 285 pp. 110-113 with modifications described by Krieger et al. (2001) Journal of Virology 75: 4614-4624, in a multi-target screening strategy. In essence, the method was as follows.
The assay utilized the stably transfected cell line Huh-7 luc/neo (hereafter referred to as Huh-Luc). […]
The replicon cells were plated in 384-well plates in the presence of the test and control compounds which were added in various concentrations. Following an incubation of three days, HCV replication was measured by assaying luciferase activity (using standard luciferase assay substrates and reagents and a Perkin Elmer ViewLux™, ultraHTS microplate imager). […] The inhibitory activity of the compound on luciferase activity was monitored on the Huh-Luc cells, enabling a dose-response curve for each test compound. […]
The replicon cells are plated in 384 well plates in the presence of the test and control compounds which are added in various concentrations. […] The inhibitory activity of the compound on luciferase activity is monitored on the Huh-Luc cells, enabling a dose-response curve for each test compound.
A general note: In antiviral work, replicon cells carry a viral genome segment that copies itself.
`NC(=O)c1cnccc1Nc1nc(-c2cc(Cl)ccc2F)nc2ncccc12` [Compound 1] gave an EC50 of 0.76 µM.

As to `CNC(=O)c1cnccc1Nc1nc(-c2cc(Cl)ccc2F)nc2ncccc12` [Compound 2], the EC50 is 11.9 µM.
